Measured values as given in PubChem BioAssay AID330 (DTP/NCI, 2004).
Where “and” joins values, the source holds several entries; their conditions need not be identical. Equal values may be shown once. Toxic doses and inconclusive results are not listed.

System: P388 leukemia ip, CD2F1 mice, survival T/C
Assay: NCI In Vivo Anticancer Drug Screen. Data for tumor model P388 Leukemia (intraperitoneal) in CD2F1 (CDF1) mice
Conditions: endpoint: median survival time, higher = longer survival
Procedure, shortened: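 Mice carrying the transplanted tumor received test compound or vehicle. Survival was recorded in each group, and the value is the treated-group measurement divided by that of the vehicle-treated control group.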

[1] = dose: 50.0 mg/kg/injection, schedule: Q01DX005 (ip), vehicle: Klucel (hydroxypropylcellulose) (HPC)
[2] = dose: 100.0 mg/kg/injection, schedule: Q01DX005 (ip), vehicle: Klucel (hydroxypropylcellulose) (HPC)
[3] = dose: 200.0 mg/kg/injection, schedule: Q01DX005 (ip), vehicle: Klucel (hydroxypropylcellulose) (HPC)
[4] = dose: 12.5 mg/kg/injection, schedule: Q01DX009 (ip), vehicle: saline
[5] = dose: 25.0 mg/kg/injection, schedule: Q01DX009 (ip), vehicle: saline
[6] = dose: 25.0 mg/kg/injection, schedule: Q01DX009 (ip), vehicle: suspension in saline
[7] = dose: 50.0 mg/kg/injection, schedule: Q01DX009 (ip), vehicle: saline
[8] = dose: 50.0 mg/kg/injection, schedule: Q01DX009 (ip), vehicle: suspension in saline
[9] = dose: 100.0 mg/kg/injection, schedule: Q01DX009 (ip), vehicle: suspension in saline
[10] = dose: 60.0 mg/kg/injection, schedule: Q01DX005 (ip), vehicle: saline with Tween-80
[11] = dose: 120.0 mg/kg/injection, schedule: Q01DX005 (ip), vehicle: saline with Tween-80
[12] = dose: 120.0 mg/kg/injection, schedule: Q01DX005 (ip), vehicle: Klucel (hydroxypropylcellulose) (HPC)
[13] = dose: 60.0 mg/kg/injection, schedule: Q01DX005 (ip), vehicle: Klucel (hydroxypropylcellulose) (HPC)
[14] = dose: 50.0 mg/kg/injection, schedule: Q01DX005 (ip), vehicle: saline with Tween-80
[15] = dose: 100.0 mg/kg/injection, schedule: Q01DX005 (ip), vehicle: saline with Tween-80
[16] = dose: 200.0 mg/kg/injection, schedule: Q01DX005 (ip), vehicle: saline with Tween-80

## O=C1c2c(-c3ccccc3)ccc(-c3ccccc3)c2C2(O)OC1(O)c1c(-c3ccccc3)ccc(-c3ccccc3)c1C2=O
[1]
  T/C: 94 % of control
[2]
  T/C: 90 % of control
[3]
  T/C: 92 % of control

## CC(=O)Nc1c(Cl)c(Cl)c2c(c1Cl)Cc1cc(Cl)ccc1-2
[4]
  T/C: 103 % of control
[5]
  T/C: 104 % of control
[6]
  T/C: 91 % of control
[7]
  T/C: 107 % of control
[8]
  T/C: 87 % of control
[9]
  T/C: 91 % of control

## Cc1c(-c2ccccc2)[nH]c2cc3c(cc12)Oc1ccccc1O3
dose: 17.5 mg/kg/injection, schedule: Q01DX009 (ip), vehicle: Klucel (hydroxypropylcellulose) (HPC)
  T/C: 101 % of control
dose: 35.0 mg/kg/injection, schedule: Q01DX009 (ip), vehicle: Klucel (hydroxypropylcellulose) (HPC)
  T/C: 106 % of control
dose: 70.0 mg/kg/injection, schedule: Q01DX009 (ip), vehicle: Klucel (hydroxypropylcellulose) (HPC)
  T/C: 105 % of control

## O=c1nc2n(c3ncccc13)CC=NN2
[10]
  T/C: 99 % of control
[11]
  T/C: 100 % of control

## N#CCc1c(F)c(F)c(F)c(F)c1F
dose: 30.0 mg/kg/injection, schedule: Q01DX005 (ip), vehicle: saline with Tween-80
  T/C: 100 % of control
[10]
  T/C: 99 % of control and 108 % of control

## COc1cc2c3c(cccc3c1)C(=O)N(CCN(C)C)C2=O
dose: 9.5 mg/kg/injection, schedule: Q01DX009 (ip), vehicle: saline with Tween-80
  T/C: 110 % of control

## CCOC(=O)NOP(=O)(N1CC1(C)C)N1CC1(C)C (stereo not given)
dose: 62.5 mg/kg/injection, schedule: Q01DX001 (ip), vehicle: saline + alcohol
  T/C: 107 % of control
dose: 125.0 mg/kg/injection, schedule: Q01DX001 (ip), vehicle: saline + alcohol
  T/C: 117 % of control
dose: 250.0 mg/kg/injection, schedule: Q01DX001 (ip), vehicle: other
  T/C: 150 % of control
dose: 250.0 mg/kg/injection, schedule: Q01DX001 (ip), vehicle: saline + alcohol
  T/C: 120 % of control
dose: 500.0 mg/kg/injection, schedule: Q01DX001 (ip), vehicle: other
  T/C: 163 % of control
dose: 500.0 mg/kg/injection, schedule: Q01DX001 (ip), vehicle: saline + alcohol
  T/C: 150 % of control

## CC(=O)Nc1cc2cc(NS(=O)(=O)c3ccc(Cl)c(Cl)c3)ccc2oc1=O
[1]
  T/C: 89 % of control
[2]
  T/C: 93 % of control
[3]
  T/C: 95 % of control

## C(=Nc1cccc2ccccc12)Nc1cccc2ccccc12.[Cu+2]
dose: 50.0 mg/kg/injection, schedule: Q01DX009 (ip), vehicle: saline with Tween-80
  T/C: 96 % of control
dose: 100.0 mg/kg/injection, schedule: Q01DX009 (ip), vehicle: saline with Tween-80
  T/C: 98 % of control
dose: 200.0 mg/kg/injection, schedule: Q01DX009 (ip), vehicle: saline with Tween-80
  T/C: 95 % of control

## COc1ccc(C2OC3=C(Nc4ccc(Cl)cc4N3)C2=O)c(OC)c1 (stereo not given)
dose: 0.94 mg/kg/injection, schedule: Q01DX005 (ip), vehicle: Klucel (hydroxypropylcellulose) (HPC)
  T/C: 99 % of control
dose: 1.88 mg/kg/injection, schedule: Q01DX005 (ip), vehicle: Klucel (hydroxypropylcellulose) (HPC)
  T/C: 91 % of control
dose: 3.75 mg/kg/injection, schedule: Q01DX005 (ip), vehicle: Klucel (hydroxypropylcellulose) (HPC)
  T/C: 95 % of control
dose: 15.0 mg/kg/injection, schedule: Q01DX005 (ip), vehicle: Klucel (hydroxypropylcellulose) (HPC)
  T/C: 91 % of control
dose: 30.0 mg/kg/injection, schedule: Q01DX005 (ip), vehicle: Klucel (hydroxypropylcellulose) (HPC)
  T/C: 92 % of control
[12]
  T/C: 90 % of control and 93 % of control

## Nc1ccccc1SC1CCCCC1O (stereo not given)
[5]
  T/C: 101 % of control
[7]
  T/C: 97 % of control
dose: 100.0 mg/kg/injection, schedule: Q01DX009 (ip), vehicle: saline
  T/C: 97 % of control
dose: 200.0 mg/kg/injection, schedule: Q01DX009 (ip), vehicle: saline
  T/C: 102 % of control

## COc1ccc(C(=O)C(CCC(=O)c2ccc(O)cc2)S(C)(=O)=O)cc1 (stereo not given)
[1]
  T/C: 100 % of control
[2]
  T/C: 93 % of control
[3]
  T/C: 96 % of control

## COC(=O)c1nc(N)nc(C(=O)OC)c1C(=O)c1ccccn1
[13]
  T/C: 101 % of control
[12]
  T/C: 99 % of control

## COc1ccc(-c2nn(CCO)c(=O)c(C#N)c2-c2ccc(OC)cc2)cc1
dose: 25.0 mg/kg/injection, schedule: Q04DX002 (ip), vehicle: distilled water + Tween-80
  T/C: 101 % of control
dose: 50.0 mg/kg/injection, schedule: Q04DX002 (ip), vehicle: distilled water + Tween-80
  T/C: 98 % of control
dose: 100.0 mg/kg/injection, schedule: Q04DX002 (ip), vehicle: distilled water + Tween-80
  T/C: 103 % of control
dose: 200.0 mg/kg/injection, schedule: Q04DX002 (ip), vehicle: distilled water + Tween-80
  T/C: 89 % of control

## Cc1ccc(C(=O)OC2C3(C)CCC(C3)C2(C)C)cc1 (stereo not given)
[10]
  T/C: 100 % of control
[11]
  T/C: 100 % of control
dose: 240.0 mg/kg/injection, schedule: Q01DX005 (ip), vehicle: saline with Tween-80
  T/C: 94 % of control

## Cc1c2ccncc2c(C)c2c1sc1ccccc12
dose: 12.5 mg/kg/injection, schedule: Q04DX003 (ip), vehicle: alkali diluted with water
  T/C: 121 % of control
dose: 200.0 mg/kg/injection, schedule: Q04DX003 (ip), vehicle: alkali diluted with water
  T/C: 162 % of control
dose: 200.0 mg/kg/injection, schedule: Q04DX003 (ip), vehicle: distilled water + Tween-80
  T/C: 155 % of control
dose: 400.0 mg/kg/injection, schedule: Q04DX003 (ip), vehicle: distilled water + Tween-80
  T/C: 117 % of control

## CC1CCC2(OC1)OC1CC3C4CCC5CC(O)CCC5(C)C4CCC3(C)C1C2C (stereo not given)
dose: 10.0 mg/kg/injection, schedule: Q01DX009 (ip), vehicle: Klucel (hydroxypropylcellulose) (HPC)
  T/C: 108 % of control
dose: 20.0 mg/kg/injection, schedule: Q01DX009 (ip), vehicle: Klucel (hydroxypropylcellulose) (HPC)
  T/C: 117 % of control
dose: 40.0 mg/kg/injection, schedule: Q01DX009 (ip), vehicle: Klucel (hydroxypropylcellulose) (HPC)
  T/C: 119 % of control

## Cc1ccc(Nc2ccc(Cl)cc2[N+](=O)[O-])cc1
dose: 15.0 mg/kg/injection, schedule: Q01DX005 (ip), vehicle: Klucel + Tween-80
  T/C: 95 % of control
dose: 30.0 mg/kg/injection, schedule: Q01DX005 (ip), vehicle: Klucel + Tween-80
  T/C: 98 % of control
dose: 60.0 mg/kg/injection, schedule: Q01DX005 (ip), vehicle: Klucel + Tween-80
  T/C: 100 % of control and 94 % of control

## C=CC(=NC(C)(C)C)Nc1ccccc1
dose: 6.25 mg/kg/injection, schedule: Q01DX009 (ip), vehicle: saline with Tween-80
  T/C: 101 % of control
dose: 12.5 mg/kg/injection, schedule: Q01DX009 (ip), vehicle: saline with Tween-80
  T/C: 105 % of control
dose: 25.0 mg/kg/injection, schedule: Q01DX009 (ip), vehicle: saline with Tween-80
  T/C: 108 % of control

## CCCCN1C(=O)C(=C/C=C/C=C2\Oc3ccccc3N2CCCS(=O)(=O)O)C(=O)N(CCCC)C1=S
[13]
  T/C: 106 % of control
[12]
  T/C: 106 % of control
dose: 240.0 mg/kg/injection, schedule: Q01DX005 (ip), vehicle: Klucel (hydroxypropylcellulose) (HPC)
  T/C: 106 % of control

## N#CC(NCc1ccccc1)C(O)c1ccccc1 (stereo not given)
[6]
  T/C: 105 % of control
[8]
  T/C: 105 % of control
[9]
  T/C: 105 % of control

## CC(=O)Nc1ccc(S(=O)(=O)n2c(=O)oc3cc(Cl)ccc32)cc1
[1]
  T/C: 86 % of control
[2]
  T/C: 99 % of control
[3]
  T/C: 86 % of control

## CCCCCCCCCC[N+](C)(C)CC(O)CO (stereo not given)
[4]
  T/C: 94 % of control
[5]
  T/C: 105 % of control
[7]
  T/C: 111 % of control

## Cc1cc(-c2cc(C)nc(N)n2)nc(N)n1
dose: 60.0 mg/kg/injection, schedule: Q01DX005 (ip), vehicle: saline
  T/C: 100 % of control
dose: 120.0 mg/kg/injection, schedule: Q01DX005 (ip), vehicle: saline
  T/C: 100 % of control
dose: 240.0 mg/kg/injection, schedule: Q01DX005 (ip), vehicle: saline
  T/C: 108 % of control

## C=CCN1C(=O)c2cc(Cl)c(Cl)cc2C1=O
[14]
  T/C: 102 % of control
[15]
  T/C: 87 % of control
[16]
  T/C: 94 % of control

## COC(=O)c1cc2cnc1CSCc1cnc(c(C(=O)OC)c1)CSC2
[14]
  T/C: 96 % of control
[15]
  T/C: 96 % of control
[16]
  T/C: 96 % of control
